{"source": "patent US20260272936A1", "about": "“TREATMENT OF CANCER WITH A PARG INHIBITOR” (858 Therapeutics, Inc., priority 2023, published 2026)", "key": {"[1]": {"target": "T1, 5-HT2A receptor (Homo sapiens, UniProt P28223)", "T1 construct": "Eurofins (contract study)", "experiment": "Follow-on study, agonist and antagonist IC50", "assay_type": "binding", "conditions": "antagonist"}, "[2]": {"tested_on": "HBCx-22 breast cancer patient-derived xenograft", "experiment": "HBCx-22 breast cancer PDX model", "assay_type": "in vivo, Hsd: Athymic Nude-Foxn1nu mice", "conditions": "75 or 100 mg/kg BID, 42 days", "method": "The PDX models were established by subcutaneous inoculation of HBCx-22 or HBCx-34 cells into Hsd: Athymic Nude-Foxn1nu mice. Breast tumor-bearing mice received estrogen diluted in drinking water (β-oestradiol, 8.5 mg/L) from the date of tumor inoculation until the end of the study to promote optimal growth of the ER^+ cell line. Groups of 10 animals each were established by random assignment. Tumor volumes and body weights were measured twice weekly. […] Statistical analysis of end-of-study tumor volumes was performed using the Kruskal-Wallis test with Dunn's multiple comparisons test (HBCx-34) or Brown-Forsythe test with Dunnett's T3 multiple comparisons test (HBCx-22).\nCompound 1 was administered to mice orally twice daily (BID) for 42 days at a dose of 75 or 100 mg/kg based on body weight. […] Compound 1 was administered to mice orally BID for 35 days at doses of 75 or 100 mg/kg based on body weight."}, "[3]": {"target": "T2, human recombinant PARG (AA 389-976) (Homo sapiens, UniProt Q86W56)", "T2 construct": "His-tagged human recombinant PARG (AA 389-976) was coupled to a CM5 biosensor chip; made in house; host or cells: E. coli BL21 (DE3), pET28a", "T2 sequence (Q86W56 389-976)": "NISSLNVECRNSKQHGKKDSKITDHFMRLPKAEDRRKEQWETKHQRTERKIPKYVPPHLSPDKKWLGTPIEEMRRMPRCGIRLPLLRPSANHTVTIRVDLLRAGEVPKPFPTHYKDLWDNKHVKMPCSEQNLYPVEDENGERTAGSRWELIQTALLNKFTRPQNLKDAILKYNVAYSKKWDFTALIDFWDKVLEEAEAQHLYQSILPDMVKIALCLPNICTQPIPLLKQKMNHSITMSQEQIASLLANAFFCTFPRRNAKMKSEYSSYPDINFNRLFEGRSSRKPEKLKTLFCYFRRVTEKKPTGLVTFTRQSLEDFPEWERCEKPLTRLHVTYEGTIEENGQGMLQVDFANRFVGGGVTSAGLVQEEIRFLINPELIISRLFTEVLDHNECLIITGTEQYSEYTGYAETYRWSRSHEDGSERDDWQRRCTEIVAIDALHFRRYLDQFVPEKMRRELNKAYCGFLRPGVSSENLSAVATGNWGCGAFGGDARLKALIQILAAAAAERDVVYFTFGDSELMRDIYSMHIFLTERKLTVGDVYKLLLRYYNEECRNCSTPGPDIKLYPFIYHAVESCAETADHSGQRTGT", "experiment": "Surface plasmon resonance (SPR) direct binding"}, "[4]": {"tested_on": "Resistant SNU601 cells (acquired niraparib resistance)", "experiment": "6-day proliferation, nuclei count, PARP inhibitor resistant line", "assay_type": "cell-based, human", "method": "The SNU601 gastric carcinoma cell line (Creative Bioarray, Cat #CSC-C9686L) was cultured in RPMI media containing glutamax, 10% fetal bovine serum, and 1% penicillin/streptomycin at 37° C., 5% CO2. To generate a PARP inhibitor resistant cell line, an IC20 concentration of niraparib was added to the culture media.\nCompound 1 and the PARP inhibitor niraparib were tested in cellular proliferation assays using the parental SNU601 cell line and the SNU601 cell line with acquired PARPi resistance. For the proliferation assays, cells were plated in 96-well plates (Corning costar 3603) at 2500-5000 cells/well in normal growth media. The next day, compound dissolved in vehicle (0.5% DMSO in media) was added to generate a 7- to 10-point concentration curve with half-log dilutions and starting concentrations of 10 or 31.6 μM. After 6 days of compound or vehicle treatment, the cells were fixed with a solution of 8% paraformaldehyde, 0.2% Triton X-100 for 20 minutes. After washing the cells with PBS, the nuclei were stained by the addition of DAPI (4′,6-diamidino-2-phenylindole) and incubation for 20 minutes. The number of nuclei in each well were counted by imaging the plates on an Image Xpress Pico automated cell imaging system (Molecular Devices). The percent proliferation after treatment was determined by normalizing the number of nuclei in treated wells to the vehicle-treated wells. Concentration-response-curves and IC50 values for percent inhibition of proliferation were generated by non-linear regression analysis using GraphPad Prism 10 software."}, "[5]": {"tested_on": "GP2D cells", "experiment": "6-day growth assay, Compound 1 in combination with exatecan", "assay_type": "cell-based, human", "method": "The activity of Compound 1 in combination with exatecan was evaluated in the HCC1954, HCC1806, and GP2D cancer cell lines in a 6-day growth assay. HCC1954 (Cat #CRL-2338) and HCC1806 (Cat #CRL-2335) cells were obtained from American Type Culture Collection (ATCC) and maintained in ATCC modified RPMI (Cat #30-2001)+10% FBS (Cat #A3160502)+1% penicillin/streptomycin (Cat #15140-122) in a humidified incubator at 37° C., 5% CO2. GP2D cells were obtained from ECACC (Cat #95090714-1VL) and maintained in DMEM+GlutaMAX (Cat #10566-016)+10% FBS (Cat #A3160502)+1% penicillin/streptomycin (Cat #15140-122). Cells were seeded at 2,500 cells/well (HCC1954 and GP2D) or 2,000 cells/well (HCC1806) in 100 μL of growth medium in a 96-well plate (Corning costar Cat #3603) and allowed to adhere overnight at 37° C. with 5% CO2. The next day, serial dilutions of Compound 1 and exatecan were prepared and added to the corresponding wells of a 96-well plate. A solution of 0.1% DMSO in medium was used as the negative control. Cells were incubated with compound for 6 days at 37° C. with 5% CO2, then fixed, stained, and counted as described in Example 3. Concentration response-curves and IC50 values were generated by non-linear regression analysis using a 4-parameter variable slope fit in GraphPad Prism 10 software. Potential synergy between Compound 1 and exatecan was assessed using Zero interaction potency (ZIP), Highest Single Agent (HSA), Bliss, and Loewe synergy models to find the most synergistic area score, where scores >10 indicate that the interaction between the two drugs is likely to be synergistic (Ianevski et al. 2020)."}, "[6]": {"tested_on": "HCC1806 xenograft", "experiment": "HCC1806 triple negative breast cancer CDX, combination with camonsertib (RP-3500)", "parameters": "species or system Athymic nude mice", "conditions": "mouse, in vivo", "method": "HCC1806 cells were cultured in RPMI medium containing 10% FBS (Thermo Fisher Scientific Cat #A31605-02) and penicillin+streptomycin (Thermo Fisher Scientific Cat #15070-063). The CDX model was established by subcutaneous inoculation of 1×10^6 HCC1806 cells/mouse into the right flank of Athymic nude mice (The Jackson Laboratory, Bar Harbor, ME, USA, Cat #002019). […] Compound 1 was administered to mice at 200 mg/kg to mice orally once daily from Monday through Friday throughout the treatment period and camonsertib (RP-3500) was administered at 15 mg/kg orally once daily from Monday through Wednesday throughout the treatment period (Table 11).\nTumor volumes and body weights were measured twice weekly. […] Statistical analysis of end-of-study tumor volumes relative to the vehicle group tumor volume was performed using Kruskal-Wallis Anova test with Dunn's multiple comparisons test."}, "[7]": {"target": "T3, human recombinant PARG (Homo sapiens, UniProt Q86W56)", "T3 construct": "Human PARG (amino acids 389-976; Uniprot ID Q86W56-1); 6xHis (N, cleaved yes); TEV cleavage site (N, cleaved yes); made in house; host or cells: PARG: E. coli BL21 (DE3); PARP1 substrate: High Five insect cells (baculovirus)", "T3 sequence (Q86W56 389-976)": "as above", "experiment": "HTRF assay of PARG enzymatic activity with PARylated-PARP1 substrate", "assay_type": "biochemical", "conditions": "geometric mean, n=14"}}}
{"smiles": "[2H]C([2H])(c1cnn(C)c1)N1C(=O)c2cc(S(=O)(=O)NC3(C)CC3)ccc2N2C1=NC[C@H]2C", "note": "[Compound 1, (R)-1-methyl-4-((1-methyl-1H-pyrazol-4-yl)methyl-d2)-N-(1-methylcyclopropyl)-5-oxo-1,2,4,5-tetrahydroimidazo[1,2-a]quinazoline-7-sulfonamide]", "values": [{"measurement": "IC50", "setting": "[1]", "value": 21, "unit": "µM"}, {"measurement": "Kb", "setting": "[1]; read-out: dissociation constant (KB)", "value": 4.2, "unit": "µM"}, {"measurement": "tolerability (body weight)", "setting": "[2]", "value": "generally well tolerated"}, {"measurement": "Kd", "setting": "[3]; SPR kinetic KD, 1:1 binding, 25° C., mean n=2", "value": 0.0011, "unit": "µM"}, {"measurement": "Rmax (Relative Units)", "setting": "[3]; relative amount of PARG bound by Compound 1", "value": 15.9, "unit": "Relative Units"}, {"measurement": "Theoretical Rmax", "setting": "[3]; total amount of PARG immobilized on the biosensor chip", "value": 19.8}, {"measurement": "better potency than niraparib in PARPi resistant SNU601", "setting": "[4]", "value": 10, "unit": "×"}, {"measurement": "IC50", "setting": "[4]; Homo sapiens, SNU-601, 144 h, read-out: IC50 inhibition of proliferation", "value": 0.32, "unit": "µM"}, {"measurement": "IC50", "setting": "[5]; Homo sapiens, GP2d, exatecan 0.03 nM", "value": 6, "unit": "µM"}, {"measurement": "IC50", "setting": "[5]; Homo sapiens, GP2d, exatecan 0.1 nM", "value": 5.1, "unit": "µM"}, {"measurement": "IC50", "setting": "[5]; Homo sapiens, GP2d, exatecan 0.3 nM", "value": 3.1, "unit": "µM"}, {"measurement": "IC50", "setting": "[5]; Homo sapiens, GP2d, exatecan 1 nM", "value": 3.1, "unit": "µM"}, {"measurement": "IC50", "setting": "[5]; Homo sapiens, GP2d, exatecan 3 nM", "value": 8.1, "unit": "µM"}, {"measurement": "IC50", "setting": "[5]; Homo sapiens, GP2d, exatecan 30 nM", "value": 5.4, "unit": "µM"}, {"measurement": "IC50", "setting": "[5]; exatecan 0.03 nM", "value": 6.3, "unit": "µM"}, {"measurement": "IC50", "setting": "[5]; exatecan 1 nM", "value": 3.3, "unit": "µM"}, {"measurement": "body weight change during the treatment period", "setting": "[6]", "value": "body weight gains"}, {"measurement": "IC50", "setting": "[7]", "value": 0.085, "unit": "µM"}]}
